Experimental data published in patent publication US20100204110A1, “USE OF A PEPTIDE AS A THERAPEUTIC AGENT” (priority 2007, published 2010).
Ends that are not written are not given here.

Assays:
HIV-1IIIB = assay: HIV-1 antiviral assay in CEM-SS cells (MTS); type: cell-based; settings: positive controls; CEM-SS cells plus HIV-1IIIB
[1] = tested on: Primary Human endothelial cells (HUVEC); assay: Endothelial cell migration assay; settings: 10 micrograms per ml, 22 hours, combination peptide 1:peptide 2 0.95 mole:1.05 mole
Description: Primary Human endothelial cells (HUVEC) were seeded in insert chambers with 3 micrometer pore size of multi-transwell plate for 6 hours at 37° C. in Endothelial Cell Basal Medium (EBM) supplemented with 0.1% bovine serum albumin. Thereafter, designated concentration of testing peptides—10 micrograms per ml—was added in duplicate wells. The endothelia were allowed to migrate for 22 hours at 37° C., then, migrated cells were fixed and stained with Hoechst 33342 dye. Images of 3 fields per insert were taken and the number of migrated cells per field were quantified using the ImageProPlus software. Data were analyzed for the average number of the migrated cells and standard deviation of six data points for each treatment condition. […] Statistic p values were computed using the Student's t-test.

RAW 264.7 cells = assay: Phagocytosis assay (Fluorescein-labeled Escherichia coli, flow cytometry); settings: 10 micrograms per ml, combination peptide 1 : peptide 2 1.10 mole : 0.90 mole
Description: RAW 264.7 (Mouse leukaemic monocyte macrophage cell line) cells were obtained from ATCC and grown in RPMI 1640 medium containing 10% FBS. Cells were incubated in 12×75 mm tubes at 37° C. with test peptides—10 micrograms per ml—for 30 min prior to adding Fluorescein-labeled Escherichia coli bacteria as the agent to be ingested. After the cells were incubated for additional 60 min at 37° C. and allowed to ingest the Fluorescein-labeled Escherichia coli bacteria, cells were fixed with 1% paraformaldehyde. The samples were then analyzed by flow cytometry to determine the amount of phagocytosis as a function of brightness (the greater the phagocytic activity, the more fluorescence in the macrophage population). Data are reported as % positive and the mean fluorescence intensity (MFI) of positively stained cells.

HUVEC = assay: Endothelial tube formation assay; settings: 10 micrograms per ml, 20 hours, combination peptide 1:peptide 2 1.10 mole:0.90 mole
Description: The endothelial tube formation assay is based on the ability of endothelial cells to form three-dimensional capillary-like tubular structures when cultured on a gel of basement membrane extract. […] Pre-labeled HUVEC with Calcein AM were seeded in a 96-well culture plate coated with extracellular metrix (Chemicon international Cat. ECM625) and treated with test peptides—10 micrograms per ml—in full growth medium. Positive control was vehicle only. The endothelial cells were allowed to form tubes foe 20 hours and were then examined under an inverted fluorescent microscope. Duplicate wells for each treatment were photographed and quantitatevily analyzed for an average tubule length using image analysis software ImageProPlus. Raw data were expressed as average tubule lenghs in pixels±standard deviation. Statistic p values were computed using the Student's t-test.

spleen cells = assay: Th1/Th2 cytokine profiling assay (Ovalbumin-restimulated spleen cells, CBA Kit); settings: 10 micrograms per ml; Ovalbumin restimulation; 72 hours
Description: The Balb/c mice (originated in 1923, it is a popular strain and is used in many different research disciplines. Also classified as an inbred from the production of 20 or more successive brother-sister matings, the Balb/c mouse is albino and small in size) were immunized on Days 1, 15, and 29 with Ovalbumin (Ovalbumin is the main protein found in egg white, commonly used to stimulate an immunological reaction in test animals) in PBS (5 micrograms/injection). On day 50, spleens of the mice were harvested (3 weeks after last boost with Ovalbumin). Cells were cultured (2×10^5/well in triplicate) and incubated with culture medium or test peptides—10 micrograms per ml—for 30 min. Thereafter, additional Ovalbumin was added to the cells at 10 micrograms/ml for in vitro restimulation of the cells. 72 hours later, cell supernatants were harvested and assayed using the Becton Dickinson Mouse Th1/Th2 Cytokine CBA Kit. This kit can be used to measure Interleukin-2 (IL-2), Interleukin-4 (IL-4), Interleukin-5 (IL-5), Interferon-γ (IFN-γ), and Tumor Necrosis Factor-α (TNF-α) protein levels in a single sample. The kit performance has been optimized for analysis of physiologically relevant concentrations (pg/ml levels) of specific cytokine proteins in tissue culture supernatants and serum samples.

HCMV strain AD169 = assay: HCMV plaque formation assay in MRC-5 cells; settings: 10 micrograms per ml, 7-10 days
[2] = tested on: hepatitis B virus (HBV) ayw strain; assay: HBV assay in HepG2-2.2.15 cells (TaqMan PCR of HBV DNA); type: cell-based; settings: 10 micrograms per ml, six days
Description: HepG2-2.2.15 is a stable cell line containing the hepatitis B virus (HBV) ayw strain genome (ATCC Cat. No. CRL-11997). Antiviral compounds blocking any late step of viral replication such as transcription, translation, pregenome encapsidation, reverse transcription, particle assembly and release can be identified and characterized using this cell line. In this assay, an active compound will reduce the production of secreted HBV from cells, measured by utilizing real time quantitative PCR (TaqMan) assay to directly and accurately measure HBV DNA copies.
HepG2-2.2.15 cells were plated in 96-well microtiter plates. After 16-24 hours the confluent monolayer of HepG2-2.2.15 cells was washed and the medium was replaced with complete medium containing test peptides—10 micrograms per ml—in duplicate. […] Six days following the initial administration of the peptides, the cell culture supernatants was collected, treated with pronase and DNAse and then used in a real-time quantitative TaqMan PCR assay. The PCR-amplified HBV DNA was detected in real-time by monitoring increases in fluorescence signals that result from the exonucleolytic degradation of a quenched fluorescence probe molecule that hybridizes to the mplified HBV DNA. […] Antiviral activity was calculated from the reduction in HBV DNA levels (% virus control). […]

Compound | antiviral activity of positive control compounds (HIV-1) (HIV-1IIIB) | inhibition of the migration of human endothelial cells [1] | increase on the phagocytic activity of murine macrophages (RAW 264.7 cells) | inhibition of the tube formation of human endothelial cells (HUVEC) | IFNγ spleen cells; TH1 response (% of control) (spleen cells) | IL-2 spleen cells (% of control) (spleen cells) | IL-4 spleen cells; TH2 response (% of control) (spleen cells) | IL-5 spleen cells; TH2 response (% of control) (spleen cells) | TNF-a spleen cells; TH1 response (% of control) (spleen cells) | inhibition of HCMV plaque formation as compared to the virus control (HCMV strain AD169) | inhibition of HBV replication as compared to the virus control infection [2]
Cc1cn([C@H]2C[C@H](N=[N+]=[N-])[C@@H](CO)O2)c(=O)[nH]c1=O [AZT] | expected levels of antiviral activity | – | – | – | – | – | – | – | – | – | –
Val-Tyr-Pro-Asn-Gly-Ala-Glu-Asp-Glu-Ser-Ala-Glu-Ala-Phe-Pro-Leu-Glu-Phe-OH (VYPNGAEDESAEAFPLEF-OH) [peptide 2] | – | 38% | 28.6% | did not inhibit | 114.7 % of control | 53.9 % of control | 140.5 % of control | 65.5 % of control | 118.8 % of control | did not inhibit | 37.6%
CC(C)(C)NC(=O)[C@@H]1CN(Cc2cccnc2)CCN1C[C@@H](O)C[C@@H](Cc1ccccc1)C(=O)N[C@H]1c2ccccc2C[C@H]1O [indinavir] | expected levels of antiviral activity | – | – | – | – | – | – | – | – | – | –
